Data published in patent publication US20220257542A1, “PHARMACEUTICAL COMPOSITION COMPRISING TRIMETHOBENZAMIDE OR PHARMACEUTICALLY ACCEPTABLE SALT THEREOF AS ACTIVE INGREDIENT FOR PREVENTING OR TREATING NEUROPATHIC PAIN” (FRONTBIO INC., priority 2019, published 2022).

System: neuropathy model mice
Assay: Von Frey filament stimulation test in streptozotocin-induced neuropathy animal model
Type: in vivo, ICR mice
Settings: oral, 10, 20, 40 and 80 mg/kg in physiological saline; tested 1, 2, 3, 4 and 5 hours after administration; FIG. 1
Protocol: First, a neuropathy animal model was prepared by administering streptozocin. Specifically, streptozotocin was intraperitoneally administered to 4-week-old ICR mice at the concentration of 75 mg/kg. Five weeks after the administration, the expression of neuropathy was confirmed through the level of blood glucose and Von Frey filament stimulation tests, and the mice were used for the following experiments.
Specifically, trimethobenzamide was dissolved in physiological saline to prepare trimethobenzamide solutions with the concentrations of 10, 20, 40 and 80 mg/kg. The prepared trimethobenzamide solutions were orally administered to neuropathy model mice, and Von Frey filament stimulation test was performed 1, 2, 3, 4 and 5 hours after the administration to confirm the inhibitory effect on neuropathy.
Specifically, trimethobenzamide or tramadol was dissolved in physiological saline to prepare trimethobenzamide solution with the concentration of 60 mg/kg, or tramadol solution with the concentration of 20 mg/kg. After co-administration of the tramadol solution with the concentration of 20 mg/kg and the trimethobenzamide solution with the concentration of 20, 40 or 60 mg/kg solution, the effect of the co-administration was confirmed. […]

With `COc1cc(C(=O)NCc2ccc(OCCN(C)C)cc2)cc(OC)c1OC` [trimethobenzamide] the “inhibitory effect on neuropathy (pain), trimethobenzamide administered alone” value was “significant effect on the inhibition of neuropathy in a concentration-dependent manner”.
